± gives the standard deviation of the averaged measurements.
What was measured:
Experiment in all cases: level (log10 ratio to DMSO vehicle control); higher = higher biomarker level / cell amount than vehicle control
Conditions in all cases: in DMSO
[1] = compound: O=C(O)C(F)(F)C(F)(F)C(F)(F)C(F)(F)C(F)(F)C(F)(F)C(F)(F)C(F)F [9-H-Perfluorononanoic acid]
Description: (§1)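 BioMAP Diversity Plus panel of 12 human primary cell co-culture systems (3C, 4H, LPS, SAg, BT, BF4T, BE3C, CASM3C, HDF3CGF, KF3CT, MyoF, Mphg). Compounds were added 1 h before stimulation and left for 24 h (MyoF 48 h; BT 72 h for soluble read-outs or 6 d for IgG). Biomarkers were read by ELISA, cytotoxicity by SRB, PBMC viability and proliferation by Alamar Blue. Each well value was divided by the mean of 8 DMSO control wells on the same plate and log10 transformed; duplicate blinded samples were tested at 4 concentrations.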

[2] = compound: C=C(C)C(=O)OCCC(F)(F)C(F)(F)C(F)(F)C(F)(F)C(F)(C(F)(F)F)C(F)(F)F [(Perfluoro-5-methylhexyl)ethyl 2-methylprop-2-enoate]
Description: as §1

[3] = compound: O=C(O)C(F)(F)C(F)(F)C(F)F [4H-Perfluorobutanoic acid]
Description: as §1

[4] = compound: O=C(O)C(F)(F)C(F)(F)C(F)(F)C(F)(F)C(F)(F)C(F)(F)F [Perfluoroheptanoic acid]
Description: as §1

[5] = compound: NC(=O)C(F)(F)C(F)(F)C(F)(F)F [Heptafluorobutyramide]
Description: as §1

[6] = compound: NC(=O)C(F)(F)C(F)(F)F [Pentafluoropropionamide]
Description: as §1

[7] = compound: O=C(O)C(F)(F)C(F)(F)C(F)(F)C(F)(F)F [Perfluoropentanoic acid]
Description: as §1

Row | Test System | level (log10) ([1]; 6700 nM) | level (log10) ([1]; 20000 nM) | level (log10) ([1]; 60000 nM) | level (log10) ([2]; 6700 nM) | level (log10) ([2]; 20000 nM) | level (log10) ([3]; 6700 nM) | level (log10) ([3]; 20000 nM) | level (log10) ([3]; 60000 nM) | level (log10) ([4]; 6700 nM) | level (log10) ([4]; 20000 nM) | level (log10) ([4]; 60000 nM) | level (log10) ([5]; 6700 nM) | level (log10) ([5]; 20000 nM) | level (log10) ([5]; 60000 nM) | level (log10) ([6]; 6700 nM) | level (log10) ([6]; 20000 nM) | level (log10) ([6]; 60000 nM) | level (log10) ([7]; 6700 nM) | level (log10) ([7]; 20000 nM) | level (log10) ([7]; 60000 nM)
1 | MyoF:PAI-I | -0.0075 ± 0.011 | 0.004 ± 0.0042 | -0.0025 ± 0.0092 | -0.0025 ± 0.011 | -0.019 ± 0.0085 | -0.0105 ± 0.019 | -0.023 ± 0.023 | -0.0095 ± 0.011 | 0 ± 0.016 | -0.0215 ± 0.023 | 0.0025 ± 0.018 | 0.0035 ± 0.00071 | 0.01 ± 0.0014 | -0.0055 ± 0.016 | 0.0075 ± 0.0021 | -0.002 ± 0.0071 | -0.004 ± 0.0057 | -0.0035 ± 0.00071 | 0.005 ± 0.0071 | 0.0075 ± 0.0021
2 | MyoF:SRB | 0.015 ± 0.0042 | 0.003 | -0.0105 ± 0.0064 | 0.001 ± 0.014 | -0.0035 ± 0.0078 | 0.0005 ± 0.013 | 0.002 ± 0.0085 | 0.0055 ± 0.0021 | -0.0005 ± 0.00071 | 0 ± 0.0085 | -0.003 ± 0.021 | -0.011 ± 0.017 | -0.0035 ± 0.0078 | -0.0005 ± 0.005 | 0.0045 ± 0.0021 | -0.007 ± 0.0057 | -0.0015 ± 0.0035 | 0.003 ± 0.0028 | -0.009 ± 0.0014 | -0.004 ± 0.0057
3 | MyoF:TIMP-1 | 0.0495 ± 0.044 | 0.0665 ± 0.019 | 0.117 ± 0.037 | -0.031 ± 0.023 | -0.024 ± 0.0057 | 0.0045 ± 0.039 | 0.023 ± 0.016 | 0.0465 ± 0.076 | -0.011 ± 0.0042 | 0.0225 ± 0.0021 | 0.0515 ± 0.0064 | -0.0285 ± 0.054 | -0.0325 ± 0.05 | -0.0435 ± 0.067 | -0.053 ± 0.027 | -0.048 ± 0.034 | -0.0225 ± 0.064 | -0.0195 ± 0.023 | -0.043 ± 0.034 | -0.002 ± 0.042
4 | MyoF:alpha-SM Actin | -0.0215 ± 0.019 | -0.0245 ± 0.013 | -0.049 ± 0.014 | -0.018 ± 0.037 | -0.0255 ± 0.04 | -0.0335 ± 0.047 | -0.0245 ± 0.049 | -0.026 ± 0.034 | -0.028 ± 0.035 | -0.0365 ± 0.022 | -0.022 ± 0.024 | 0.0105 ± 0.033 | -0.004 ± 0.033 | 0.0015 ± 0.018 | -0.007 ± 0.02 | -0.0135 ± 0.019 | -0.0195 ± 0.018 | 0.0265 ± 0.07 | 0.0355 ± 0.052 | 0.0485 ± 0.044
5 | MyoF:bFGF | -0.0025 ± 0.021 | 0.0015 ± 0.012 | -0.0055 ± 0.018 | -0.0015 ± 0.005 | 0.002 ± 0.0014 | -0.023 ± 0.016 | -0.007 ± 0.02 | 0.0045 ± 0.012 | -0.029 ± 0.0085 | -0.0255 ± 0.013 | -0.0075 ± 0.0021 | -0.0155 ± 0.021 | 0.004 ± 0.016 | -0.001 ± 0.013 | -0.002 ± 0.0042 | 0.0105 ± 0.012 | -0.0005 ± 0.029 | -0.021 ± 0.0014 | -0.0085 ± 0.0078 | -0.0055 ± 0.0035
6 | lMphg:CCL2/MCP-1 | -0.0085 ± 0.0021 | -0.0215 ± 0.013 | 0.014 ± 0.04 | 0.014 ± 0.0099 | 0.0175 ± 0.037 | -0.024 ± 0.027 | -0.0125 ± 0.0035 | 0.0005 ± 0.021 | -0.0365 ± 0.021 | -0.019 ± 0.0042 | 0.027 ± 0.023 | -0.0035 ± 0.0021 | -0.001 ± 0.038 | 0.0175 ± 0.042 | -0.0145 ± 0.0035 | -0.012 ± 0.0042 | 0 ± 0.03 | 0.038 ± 0.0028 | 0.0155 ± 0.03 | 0.0015 ± 0.035

Source: the supplement of paper PMC10331698
